Data reported in patent US12435087B2, “Modulators of DCN-1 and methods of use thereof” (Cellarity, Inc., priority 2023, dated 2025).
Like-named read-outs stand apart in the source and are kept apart here.

Molecular target: DCN1 (DCUND1) protein PONY domain (Homo sapiens (Human), UniProt Q96GG9)
Test: TR-FRET assay (binding to DCN-1, displacement of FAM-labeled probe)
Outline: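 Compounds read at 1, 5 and 24 h, 0.1% final DMSO, by TR-FRET between terbium-streptavidin on biotinylated DCN1 PONY domain (E. coli) and a FAM-tagged non-covalent inhibitor probe. Two setups used, 5 nM protein with 20 nM labelled probe, or 0.31 nM protein with 100 nM labelled plus 800 nM unlabelled probe; buffer had TritonX and 200 mM NaCl. % activity relative to high (with probe) and low (without probe) controls.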

[1] = 24 hr after treatment with compound, read-out: TR FRET IC50 24 hr
[2] = TR FRET IC50 1 hr (nM), 1 hr after treatment with compound
[3] = read-out: TR FRET IC50 1 hr, 1 hr after treatment with compound

DCN1 (DCUND1) protein PONY domain, sequence (Q96GG9 60-248): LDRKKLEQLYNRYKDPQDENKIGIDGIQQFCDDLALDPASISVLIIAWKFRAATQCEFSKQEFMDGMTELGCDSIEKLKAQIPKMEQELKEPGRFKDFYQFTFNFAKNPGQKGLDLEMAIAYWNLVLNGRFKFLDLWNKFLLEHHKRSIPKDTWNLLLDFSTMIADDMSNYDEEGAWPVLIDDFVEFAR

| SMILES | IC50 [1] | IC50 [2] | IC50 [3] |
| --- | --- | --- | --- |
| C=C(CN1CC2CC1CO2)C(=O)NCc1cccc([C@H]2c3c(C)nn(-c4ccccc4)c3N(CC)C(=O)[C@@H]2NC(=O)c2cccc(C(F)(F)F)c2)c1 (some centres unmarked) [Compound I-294] | ≤ 200 nM | 200 to 1000 nM |  |
| C=C(CN1CCOCC1)C(=O)N(C)Cc1cccc([C@@H]2c3cnn(-c4ccccc4)c3N(CC)C(=O)[C@H]2NC(=O)c2ccn(C(F)(F)F)n2)c1 [Compound I-295] | ≤ 200 nM | 1000 to 3000 nM |  |
| C=C(C(=O)NCc1cccc([C@@H]2c3cnn(-c4ccccc4)c3N(CC)C(=O)[C@H]2NC(=O)c2ccn(C(F)(F)F)n2)c1)C(C)N1CCOCC1 (some centres unmarked) [Compound I-296] | ≤ 200 nM |  | ≤ 200 nM |
| C=C(CN1CCOCC1)C(=O)NCc1cccc([C@@H]2c3cnn(-c4ccccc4)c3N(CC)C(=O)[C@H]2NC(=O)c2ccn(CC(F)(F)F)n2)c1 [Compound I-297] | ≤ 200 nM | 200 to 1000 nM |  |
| C=C(CN1CCOCC1)C(=O)N[C@@H](C)c1cccc([C@@H]2c3cnn(-c4ccccc4)c3N(CC)C(=O)[C@H]2NC(=O)c2nccc(C(F)(F)F)n2)c1 [Compound I-299] | 1000 to 3000 nM | 1000 to 3000 nM |  |
| C/C=C(\CN1CCN(C2COC2)CC1)C(=O)N(C)c1cccc([C@@H]2c3cnn(-c4ccccc4)c3N(CC)C(=O)[C@H]2NC(=O)c2csc(C(F)(F)F)n2)c1 [Compound I-301, N-((4R,5S)-7-ethyl-4-(3-((E)-N-methyl-2-((4-(oxetan-3-yl)piperazin-1-yl)methyl)but-2-enamido)phenyl)-6-oxo-1-phenyl-4,5,6,7-tetrahydro-1H-pyrazolo[3,4-b]pyridin-5-yl)-2-(trifluoromethyl)thiazole-4-carboxamide] | 200 to 1000 nM | 1000 to 3000 nM |  |
| C/C=C(\CN1CC2(COC2)C1)C(=O)NCc1cccc([C@@H]2c3cnn(-c4ccccc4)c3N(CC)C(=O)[C@H]2NC(=O)c2ccn(C(F)(F)F)n2)c1 [Compound I-302] | ≤ 200 nM | 200 to 1000 nM |  |
| C=C(CN1CCC1)C(=O)NCc1cccc([C@@H]2c3c(C)nn(-c4ccccc4)c3N(CC)C(=O)[C@H]2NC(=O)c2cccc(C(F)(F)F)c2)c1 [Compound I-303] | ≤ 200 nM |  | ≤ 200 nM |
| C=C(CN1CC2(COC2)C1)C(=O)NCc1cccc([C@H]2c3c(C)nn(-c4ccccc4)c3N(CC)C(=O)[C@H]2NC(=O)c2cccc(C(F)(F)F)c2)c1 [Compound I-304] | 200 to 1000 nM | 1000 to 3000 nM |  |
| CCN1C(=O)[C@@H](NC(=O)c2cccc(C(F)(F)F)c2)[C@H](c2cccc(CNC/C=C/C(=O)OC(C)(C)C)c2)c2cnn(-c3ccccc3)c21 [Compound I-306, tert-butyl (E)-4-((3-((4R,5S)-7-ethyl-6-oxo-1-phenyl-5-(3-(trifluoromethyl)benzamido)-4,5,6,7-tetrahydro-1H-pyrazolo[3,4-b]pyridin-4-yl)benzyl)amino)but-2-enoate] | 200 to 1000 nM | 1000 to 3000 nM |  |
| CCN1C(=O)[C@@H](NC(=O)c2cccc(C(F)(F)F)c2)[C@H](c2cccc(CNC/C=C/C(=O)N3CCCC3)c2)c2cnn(-c3ccccc3)c21 [Compound I-307] | 1000 to 3000 nM | 1000 to 3000 nM |  |
| C=C(CN1CCOCC1)C(=O)NCc1cccc([C@@H]2c3cnn(-c4ccccc4)c3N(CC)C(=O)[C@H]2NC(=O)c2ccn(C(F)F)n2)c1 [Compound I-308] | ≤ 200 nM | 200 to 1000 nM |  |
| C/C=C(\CN1CCC1)C(=O)NCc1cccc([C@@H]2c3cnn(-c4ccccc4)c3N(CC)C(=O)[C@H]2NC(=O)c2ccn(C3CC3)n2)c1 [Compound I-309] | ≤ 200 nM | ≤ 200 nM |  |
| C=C(C(=O)NCc1cccc([C@@H]2c3cnn(-c4ccccc4)c3N(CC)C(=O)[C@H]2NC(=O)c2nccc(C(F)(F)F)n2)c1)C(C)N1CCN(C2COC2)CC1 (some centres unmarked) [Compound I-310] | ≤ 200 nM |  | ≤ 200 nM |
| C=C(CN(C)C1COC1)C(=O)NCc1cccc([C@@H]2c3c(C)nn(-c4ccccc4)c3N(CC)C(=O)[C@H]2NC(=O)c2cccc(C(F)(F)F)c2)c1 [Compound I-312] | ≤ 200 nM |  | ≤ 200 nM |
| C=C(C(=O)N(C)Cc1cccc([C@@H]2c3cnn(-c4ccccc4)c3N(CC)C(=O)[C@H]2NC(=O)c2ccn(C(F)(F)F)n2)c1)C(C)N(C)C1COC1 (some centres unmarked) [Compound I-313] | ≤ 200 nM | 1000 to 3000 nM |  |
| C/C=C(\CN1CCC1)C(=O)NCc1cccc([C@@H]2c3cnn(-c4ccccc4)c3N(CC)C(=O)[C@H]2NC(=O)c2nccc(C(F)(F)F)n2)c1 [Compound I-314] | ≤ 200 nM | 200 to 1000 nM |  |
| C=C(CN1CC2CC(C1)O2)C(=O)NCc1cccc([C@@H]2c3cnn(-c4ccccc4)c3N(CC)C(=O)[C@H]2NC(=O)c2ccn(C(F)(F)F)n2)c1 [Compound I-315] | ≤ 200 nM |  | ≤ 200 nM |
| C=C(C(=O)NCc1cccc([C@@H]2c3cnn(-c4ccccc4)c3N(CC)C(=O)[C@H]2NC(=O)c2cccc(C(F)(F)F)c2)c1)C(C)N1CCN(C2COC2)CC1 (some centres unmarked) [Compound I-317] | ≤ 200 nM |  | ≤ 200 nM |
| C=C(CN(C)C1COC1)C(=O)N(C)Cc1cccc([C@@H]2c3cnn(-c4ccccc4)c3N(CC)C(=O)[C@H]2NC(=O)c2csc(C(F)(F)F)n2)c1 [Compound I-318] | ≤ 200 nM | 200 to 1000 nM |  |

| SMILES | IC50 [1] | IC50 [2] | IC50 [3] |
| --- | --- | --- | --- |
| CCN1C(=O)[C@@H](NC(=O)c2cccc(C(F)(F)F)c2)[C@H](c2cncc(NC(=O)C3=CCC3)c2)c2cnn(-c3ccccc3)c21 [Compound I-319] | 200 to 1000 nM | 1000 to 3000 nM |  |
| CCN1C(=O)[C@@H](NC(=O)c2cccc(C(F)(F)F)c2)[C@H](c2cncc(NC(=O)/C=C/CN(C)C)c2)c2cnn(-c3ccccc3)c21 [Compound I-320] | 200 to 1000 nM | 1000 to 3000 nM |  |
| C/C=C(\CN1CC2(COC2)C1)C(=O)N(C)Cc1cccc([C@@H]2c3cnn(-c4ccccc4)c3N(CC)C(=O)[C@H]2NC(=O)c2ccn(C(F)(F)F)n2)c1 [Compound I-321] | 1000 to 3000 nM | 1000 to 3000 nM |  |
| C/C=C(\CN(C)C1COC1)C(=O)NCc1cccc([C@@H]2c3cnn(-c4ccccc4)c3N(CC)C(=O)[C@H]2NC(=O)c2nccc(C(F)(F)F)n2)c1 [Compound I-322] | ≤ 200 nM | 1000 to 3000 nM |  |
| CCN1C(=O)[C@@H](NC(=O)c2ccn(C(F)(F)F)n2)[C@H](c2cccc(NC(=O)C3=CCN(C)C3)c2)c2c(C)nn(-c3ccccc3)c21 [Compound I-323] | ≤ 200 nM | 200 to 1000 nM |  |
| C=C(C(=O)NCc1cccc([C@@H]2c3cnn(-c4ccccc4)c3N(CC)C(=O)[C@H]2NC(=O)c2nccc(C(F)(F)F)n2)c1)C(C)N1CC2CC(C1)O2 (some centres unmarked) [Compound I-324] | ≤ 200 nM |  | ≤ 200 nM |
| C=C(C(=O)NCc1cccc([C@@H]2c3cnn(-c4ccccc4)c3N(CC)C(=O)[C@H]2NC(=O)c2ccn(C3CC3)n2)c1)C(C)N1CCC12COC2 (some centres unmarked) [Compound I-325] |  | 200 to 1000 nM |  |
| C/C=C(\CN1CCOCC1)C(=O)N(C)Cc1cccc([C@@H]2c3cnn(-c4ccccc4)c3N(CC)C(=O)[C@H]2NC(=O)c2nccc(C(F)(F)F)n2)c1 [Compound I-326] | 1000 to 3000 nM | 1000 to 3000 nM |  |
| C=C(C(=O)NCc1cccc([C@@H]2c3cnn(-c4ccccc4)c3N(CC)C(=O)[C@H]2NC(=O)c2ccn(C3CC3)n2)c1)C(C)N(C)C1COC1 (some centres unmarked) [Compound I-327] | ≤ 200 nM |  | ≤ 200 nM |
| CCN1C(=O)[C@@H](NC(=O)c2cccc(C(F)(F)F)c2)[C@@H](c2cncc(NC(=O)/C=C/CN(C)C)c2)c2cnn(-c3ccccc3)c21 [Compound I-329] | 1000 to 3000 nM | 1000 to 3000 nM |  |
| CCN1C(=O)[C@@H](NC(=O)c2nccc(C(F)(F)F)n2)[C@H](c2cccc(C(=O)N3C[C@@H](F)C[C@H]3C#N)c2)c2cnn(-c3ccccc3)c21 [Compound I-330] | 1000 to 3000 nM | 1000 to 3000 nM |  |
| C=C(Cn1cc(F)cn1)C(=O)NCc1cccc([C@@H]2c3cnn(-c4ccccc4)c3N(CC)C(=O)[C@H]2NC(=O)c2nccc(C(F)(F)F)n2)c1 [Compound I-331] | 200 to 1000 nM | 1000 to 3000 nM |  |
| C=C(CN1CCC12COC2)C(=O)NCc1cccc([C@@H]2c3cnn(-c4ccccc4)c3N(CC)C(=O)[C@H]2NC(=O)c2cccc(C(F)(F)F)c2)c1 [Compound I-332] | ≤ 200 nM |  | ≤ 200 nM |
| C=C(CN1CCN(C2COC2)CC1)C(=O)NCc1cccc([C@@H]2c3cnn(-c4ccccc4)c3N(CC)C(=O)[C@H]2NC(=O)c2nccc(C(F)(F)F)n2)n1 [Compound I-333] | ≤ 200 nM | 200 to 1000 nM |  |
| C=C(C(=O)NCc1cccc([C@@H]2c3cnn(-c4ccccc4)c3N(CC)C(=O)[C@H]2NC(=O)c2ccn(CCF)n2)c1)C(C)N(C)C1COC1 (some centres unmarked) [Compound I-334] | ≤ 200 nM | 200 to 1000 nM |  |
| CCC(=O)NCc1cccc([C@@H]2c3cnn(-c4ccccc4)c3N(CC)C(=O)[C@H]2NC(=O)c2ccn(C(F)(F)F)n2)c1 [Compound I-335] | 200 to 1000 nM | 1000 to 3000 nM |  |
| C/C=C(\CN1CC2CC(C1)O2)C(=O)Nc1cccc([C@@H]2c3cnn(-c4ccccc4)c3N(CC)C(=O)[C@H]2NC(=O)c2nccc(C(F)(F)F)n2)c1 [Compound I-337, N-((4R,5S)-4-(3-((E)-2-((6-oxa-3-azabicyclo[3.1.1]heptan-3-yl)methyl)but-2-enamido)phenyl)-7-ethyl-6-oxo-1-phenyl-4,5,6,7-tetrahydro-1H-pyrazolo[3,4-b]pyridin-5-yl)-4-(trifluoromethyl)pyrimidine-2-carboxamide] | ≤ 200 nM | 200 to 1000 nM |  |
| C=C(CN1CCOCC1)C(=O)NCc1cccc([C@@H]2c3cnn(-c4ccccc4)c3N(CC)C(=O)[C@H]2NC(=O)c2ccn(C)n2)c1 [Compound I-338] | ≤ 200 nM | 1000 to 3000 nM |  |
| CCN1C(=O)[C@@H](NC(=O)c2cccc(C(F)(F)F)c2)[C@H](c2cccc(CN(C)C/C=C/C(=O)N(C)C)c2)c2cnn(-c3ccccc3)c21 [Compound I-339] | 1000 to 3000 nM | 1000 to 3000 nM |  |
